Reference: US9018212B2, “Pyridazine carboxamides as CCR2 receptor antagonists” (Boehringer Ingelheim International GmbH, priority 2010, dated 2015)

Biological target: T1, CCR2 (Homo sapiens, UniProt P41597)
T1 construct: Membranes were prepared from THP-1 cells; endogenous in cells; host or cells: THP-1 (human acute monocytic leukaemia cells), membrane preparation
T1 sequence (P41597 1-360 isoform P41597-2): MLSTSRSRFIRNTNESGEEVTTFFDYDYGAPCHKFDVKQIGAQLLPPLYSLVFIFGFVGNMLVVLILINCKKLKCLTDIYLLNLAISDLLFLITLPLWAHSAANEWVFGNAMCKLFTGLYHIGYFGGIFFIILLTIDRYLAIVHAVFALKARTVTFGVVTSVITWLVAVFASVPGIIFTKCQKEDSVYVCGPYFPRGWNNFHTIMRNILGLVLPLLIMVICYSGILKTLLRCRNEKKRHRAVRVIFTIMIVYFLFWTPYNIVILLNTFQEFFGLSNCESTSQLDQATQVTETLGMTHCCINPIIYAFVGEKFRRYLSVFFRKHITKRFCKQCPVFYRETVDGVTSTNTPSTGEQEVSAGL
Experiment: CCR2 receptor membrane binding assay ([125I]MCP-1, THP-1 membranes, SPA beads)
Details: THP-1 cell membranes; [125I]MCP-1 displacement; bound radioactivity after 8 h; read-out: hKi
Description: The above exemplary substances have been tested for binding to CCR2 using a binding assay as outlined herein below:
THP-1 cells (human acute monocytic leukaemia cells) were cultured under standardized conditions at 37° C. and 5% CO2 in a humidified incubator. THP-1 cells were cultivated in RPMI 1640 medium (Gibco 21875) containing 1% MEM-NEAA (Gibso 11140) 2 mM L-glutamine, 1.5 g/L sodium bicarbonate, 4.5 g/L glucose, 10 mM HEPES and 1.0 mM sodium pyruvate, 90%; 10% fetal calf serum (FCS Gibco 10500-064).
Membranes were prepared from THP-1 cells. THP-1 cells were centrifuged at 300×g at 4° C. for 10 min. The cell pellet was resuspended in Phosphate Buffer Saline (PBS, including 10 μM Pefabloc and a protease inhibitor mix ‘complete’, Boehringer Mannheim (1 tablet/50 ml)), to a concentration of […]. The membrane preparation was performed by disrupting the cells by nitrogen […] (at 50 bar, for 1 h) in a “Nitrogen Bombe” (Parr Instrument). Cell debris was removed by centrifugation (800×g at 4° C., 1 min). The supernatant was centrifuged at 80000×g, 4° C. for 30 min to sediment the cell membranes. Usually 50 mg of protein (Bradford assay) were yielded from 1×10E9 cells. The membranes were resuspended in 25 mM HEPES, 25 mM MgCl2, 1 mM CaCl2, 10% Glycerine for storage in aliquots at −80° C. in 25 mM HEPES, 25 mM MgCl2, 1 mM CaCl2, 10% Glycerine and stored at −80° C.
Perkin Elmer NEX 332 Jod 125 MCP-1, Stock: 2200 Ci/mmol solved in 2000 μl assay buffer, stored at −20° C. THP-1 membrane were adjusted with 25 mM HEPES, pH 7.2; 5 mM MgCl2; 0.5 mM CaCl2; 0.2% BSA assay buffer to a concentration of 2.5 μg/15 μl. Amersham Biosciences PVT-WGA Beads (RPNQ0001) were adjusted with assay buffer to a concentration of 0.24 mg/30 μl. For preparation of the membrane-bead-suspension membranes and beads were incubated for 30 min at RT under rotation (60 rpm) with a ratio of 1:2. Test compounds dissolved in 100% DMSO to a concentration of 10 mM and are further diluted with 100% DMSO to 1 mM. All additional compound dilutions were obtained with assay buffer, final 1% DMSO. Compounds, membrane-bead-suspension and [125I]MCP-1 (ca. 25000 cpm/10 μl) were incubated. Bound radioactivity was determined by scintillation counter after 8 h. Determination of affinity of test compounds (dissociation constant hKi) is calculated by iterative fitting of experimental data using the “easy sys” program, which is based on law of mass action (Schittkowski K. (1994), Numerische Mathematik, Vol. 68, 129-142).

| Ki | Structure (SMILES) |
| --- | --- |
| 5 nM | Cc1c(NC[C@H]2CCC[C@@H](c3ccc(OC(F)(F)F)cc3)O2)cnnc1C(=O)N1CCC(NC2CCOCC2F)CC1 (some centres unmarked) [Example 14] |
| 4 nM | CO[C@@H]1COCC[C@@H]1NC1CCN(C(=O)c2nncc(Nc3ccc(Cl)c(Cl)c3)c2C)CC1 [Example 22] |
| 16 nM | CO[C@@H]1COCC[C@@H]1NC1CCN(C(=O)c2nncc(N3CCc4ccc(C(F)(F)F)cc4C3)c2C)CC1 [Example 11] |
| 54 nM | Cc1c(N2CCc3ccc(C(F)(F)F)cc3C2)cnnc1C(=O)N1CCC(NC2CCOCC2F)CC1 (centres unmarked) [Example 20] |
| 6 nM | CO[C@H]1COCC[C@H]1NC1CCN(C(=O)c2nncc(NC[C@H]3CCC[C@@H](c4ccc(C(F)(F)F)cc4)O3)c2C)CC1 [Example 15] |
| 27 nM | COC1COCCC1NC1CCN(C(=O)c2nncc(NCc3ccc(C(C)(C)C)cc3)c2C)CC1 (centres unmarked) [Example 9] |
| 7 nM | Cc1c(NC[C@H]2CCC[C@@H](c3ccccc3)C2)cnnc1C(=O)N1CCC(NC2CCOCC2F)CC1 (some centres unmarked) [Example 18] |
| 1 nM | COc1nnc(C(=O)N2CCC(N[C@H]3CCOC[C@H]3OC)CC2)c(C)c1NC[C@H]1CCC[C@@H](c2ccccc2)C1 [Example 3] |
| 41 nM | Cc1c(Nc2ccc(Cl)c(Cl)c2)cnnc1C(=O)N1CCC(NC2CCOCC2F)CC1 (centres unmarked) [Example 21] |
| 1 nM | COc1nnc(C(=O)N2CCC(N[C@H]3CCOC[C@H]3OC)CC2)c(C)c1NC[C@H]1CCC[C@@H](c2ccc(C(F)(F)F)cc2)O1 [Example 7] |
| 2 nM | COc1nnc(C(=O)N2CCC(N[C@@H]3CCOC[C@@H]3OC)CC2)c(C)c1NC[C@H]1CCC[C@@H](c2ccc(C(F)(F)F)cc2)O1 [Example 8] |
| 73 nM | CO[C@H]1COCC[C@H]1NC1CCN(C(=O)c2nncc(N3CCc4ccc(C(F)(F)F)cc4C3)c2C)CC1 [Example 17] |
| 35 nM | Cc1ccc([C@@H]2CCC[C@H](CNc3cnnc(C(=O)N4CCC(NC5CCOCC5F)CC4)c3C)O2)cc1 (some centres unmarked) [Example 13] |
| 0.7 nM | CO[C@@H]1COCC[C@@H]1NC1CCN(C(=O)c2nncc(NC[C@H]3CCC[C@@H](c4ccc(OC(F)(F)F)cc4)O3)c2C)CC1 [Example 12] |
| 3 nM | CO[C@@H]1COCC[C@@H]1NC1CCN(C(=O)c2nncc(NC[C@H]3CCC[C@@H](c4ccccc4)C3)c2C)CC1 [Example 10] |
| 10 nM | COc1nnc(C(=O)N2CCC(N[C@H]3CCOC[C@H]3OC)CC2)c(C)c1N1CCc2ccc(C(F)(F)F)cc2C1 [Example 4] |
| 3 nM | CO[C@@H]1COCC[C@@H]1NC1CCN(C(=O)c2nncc(NC[C@H]3CCC[C@@H](c4ccc(C(F)(F)F)cc4)O3)c2C)CC1 [Example 16] |
| 128 nM | COC1COCCC1NC1CCN(C(=O)c2nnc(C)c(NCc3ccc(C(C)(C)C)cc3)c2C)CC1 (centres unmarked) [Example 23] |
| 3 nM | COc1nnc(C(=O)N2CCC(N[C@H]3CCOC[C@H]3OC)CC2)c(C)c1NC[C@H]1CCC[C@@H](c2ccc(OC(F)(F)F)cc2)O1 [Example 5] |
| 40 nM | COc1nnc(C(=O)N2CCC(NC3CCOCC3OC)CC2)c(C)c1NCc1ccc(C(C)(C)C)cc1 (centres unmarked) [Example 2] |
| 9 nM | Cc1c(NC[C@H]2CCC[C@@H](c3ccc(C(F)(F)F)cc3)O2)cnnc1C(=O)N1CCC(NC2CCOCC2F)CC1 (some centres unmarked) [Example 19] |
| 60 nM | COc1nnc(C(=O)N2CCC(N3CCC(N(C)S(C)(=O)=O)CC3)CC2)c(C)c1NCc1ccc(C(C)(C)C)cc1 [Example 1] |
| 4 nM | COc1nnc(C(=O)N2CCC(N[C@@H]3CCOC[C@@H]3OC)CC2)c(C)c1NC[C@H]1CCC[C@@H](c2ccc(C)cc2)O1 [Example 6] |
